From patent US20250026741A1, “INHIBITORS OF THE ONCOGENIC SHP2 PHOSPHATASE AND USES THEREOF” (Sanford Burnham Prebys Medical Discovery Institute, priority 2021, published 2025)
pIC50: −log10 of the molar value.

How the values were obtained:
[1] = molecular target: striatal-enriched tyrosine phosphatase (STEP) catalytic domain (Homo sapiens (Human), UniProt P54829); assay: DiFMUP phosphatase inhibition assay, STEP; format: biochemical; conditions: for pIC50: catalytic domain, DiFMUP at Km (4 μM); for fold selectivity for SHP2 over STEP: from IC50 values against catalytic domains
Chain of striatal-enriched tyrosine phosphatase (STEP) catalytic domain (P54829 280-565 limits assumed): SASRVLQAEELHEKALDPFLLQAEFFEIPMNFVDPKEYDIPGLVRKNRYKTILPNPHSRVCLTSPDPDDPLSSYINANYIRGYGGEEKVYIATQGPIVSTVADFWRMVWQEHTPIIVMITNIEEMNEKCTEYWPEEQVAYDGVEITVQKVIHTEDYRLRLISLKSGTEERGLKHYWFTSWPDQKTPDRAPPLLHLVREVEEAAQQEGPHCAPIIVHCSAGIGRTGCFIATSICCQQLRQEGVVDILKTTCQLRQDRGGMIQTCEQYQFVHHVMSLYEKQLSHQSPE
Description: (§1) Selectivity is one of the biggest challenges in PTP inhibitor development. […] Similar to SHP2, we adapted a 384-well plate format DiFMUP assay for recombinant PTP1B and STEP and performed Michaelis-Menten experiments to determine DiFMUP Km values for each phosphatase. IC50 values of our inhibitors for PTP1B and STEP were determined in 10-point dose-response assays with DiFMUP used at the concentration corresponding to the respective Km value. […] Other inhibitors with good relative selectivity for SHP2 included #02 (13-fold selective over PTP1B; 73-fold selective over STEP) and #05 (5-fold selective over PTP1B; >71-fold selective over STEP).
(§2) SHP2 inhibitors were tested at room temperature (RT) in a 384-well plate format standard phosphatase fluorescence intensity assay using DiFMUP (Invitrogen/Thermo Fisher Scientific, Carlsbad, CA) as a substrate and a total reaction volume of 25 μL. SHP2 inhibitors or vehicle (DMSO) were spotted in triplicate into a black Greiner FLUOTRAC™ 200 384-well microplate (#781076, Greiner) for a 10-point dose-response assay using an Echo®555 Liquid Handler (Labcyte, Inc., San Jose, CA). PTP working solutions were prepared at a 0.625 nM concentration (for a final concentration of 0.5 nM) in buffer containing 50 mM Bis-Tris pH 6.0, 50 mM NaCl, 5 mM DTT, and 0.01% Tween® 20. Prior to the assay, a dually phosphorylated insulin receptor substrate 1 (IRS-1) peptide [625 nM (500 nMfinal) (30)] was added to full-length WT SHP2 working solutions and incubated for 20 min. DiFMUP working solutions at 5× final concentration were prepared in 50 mM Bis-Tris pH 6.0, 50 mMNaCl, and 0.01% Tween 20. 20 μL of PTP working solution was dispensed into the microplate and incubated with inhibitor for 20 min at RT. […] The reaction was initiated by addition of 5 μL DiFMUP working solutions. Fluorescence intensity was measured in kinetic mode (every minute for 7 or 10 min) using a Tecan Spark® Multimode Microplate Reader (Tecan, Groedig, Austria) with an excitation wavelength of 360 nm and an emission wavelength of 460 nm. The initial rates were determined from the linear progression curves of the PTP reaction. The nonenzymatic hydrolysis of the substrate was corrected by using a control without addition of enzyme. IC50 values were calculated from the corrected initial rates by nonlinear regression using the program GraphPad Prism (GraphPad Software, Inc., San Diego, CA) Version 8. Dose-response inhibition assays of SHP2cat using the substrate OMFP were performed similarly as described above for DiFMUP. OMFP was used at a concentration corresponding to its Km value for SHP2cat (50 μM final). Fluorescence intensity was measured in kinetic mode (every minute for 10 min) using a Tecan Spark Multimode Microplate Reader with an excitation wavelength of 485 nm and an emission wavelength of 535 nm. Initial rates were determined and IC50 vales calculated as described above.

PTP1B catalytic domain = PTP1B catalytic domain (Homo sapiens (Human), UniProt P18031); assay: DiFMUP phosphatase inhibition assay, PTP1B; format: biochemical; conditions: for pIC50: catalytic domain, DiFMUP at Km (25 μM); for fold selectivity for SHP2 over PTP1B: from IC50 values against catalytic domains
Chain of PTP1B catalytic domain (P18031 1-300): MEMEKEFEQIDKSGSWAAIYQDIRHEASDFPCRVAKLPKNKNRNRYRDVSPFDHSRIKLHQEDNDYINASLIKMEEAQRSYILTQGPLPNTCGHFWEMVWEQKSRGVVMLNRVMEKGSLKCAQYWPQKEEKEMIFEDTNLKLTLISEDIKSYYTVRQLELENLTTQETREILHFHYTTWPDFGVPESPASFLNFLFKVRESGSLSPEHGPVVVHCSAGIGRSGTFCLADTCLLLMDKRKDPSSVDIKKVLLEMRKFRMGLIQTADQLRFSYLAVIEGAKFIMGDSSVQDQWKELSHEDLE
Description: as §1, §2

[2] = system: KYSE-520 esophageal cancer cells; assay: Cell viability assay (CellTiter-Glo), KYSE-520; format: cell-based; conditions: KYSE-520 cells, various concentrations, 3 d
From the text: (§3) Inhibition of SHP2 has been reported to inhibit the growth of cancer cells including Kasumi-1 acute myeloid leukemia (AML) and KYSE-520 esophageal cancer cells. […] Cell viability is shown as a percentage of the vehicle (DMSO) control and represents the mean±SD. B) #02 dose-response curves in cell viability assays using Kasumi-1, KYSE-520, MOLM-13, and […] cells after 3 d in culture. The percentages compared to DMSO vehicle control were curve fitted using nonlinear regression (log[inhibitor] vs. normalized response, variable slope) and represent the mean±SD. C) Cell viability of […] and MDA-MB-468 triple-negative breast cancer (TNBC) cells in the presence of various concentrations of #02 or the SHP2 allosteric inhibitor SHP099 after 5 d in culture. Cell viability is shown as a percentage of DMSO vehicle control, representing mean±SD, and curve fitted as in B). D) Colony formation assay (11 d) of […] and MDA-MB-468 TNBC cells in the presence of various concentrations of #02 or the SHP2 allosteric inhibitor SHP099. E) Phospho-ERK1/2 (p-ERK1/2) immunoblot analysis from total cell lysates of MOLM-13 AML cells treated with #02 at the indicated concentrations, or with SHP2 allosteric inhibitor RMC-4550 (RMC, 1 μM) for 3 h or 24 h. The quantitation of p-ERK1/2 levels is shown as the percentage of the DMSO (vehicle) control and represents data from three independent experiments (mean±SD). F) Viability of AML patient-derived cells in the presence of 10 μM #02 or 10 μM SHP2 allosteric inhibitor RMC-4550 after 2 d, 4 d, or 6 d in culture. Cell viability is shown as a percentage of the DMSO vehicle control and represents the mean±SD (*p<0.05; **p<0.01; ****p<0.0001; unpaired test with Welch's correction) G) Viability of MOLM-13 cells and MOLM-13-Cas9-mCherry cells with SHP2 knockout (KO) in the presence of #01, #02, and allosteric inhibitor SHP099 at various concentrations (10-point dose-response). The percentages compared to the DMSO vehicle control were curve fitted using nonlinear regression (log[inhibitor] vs. normalized response, variable slope) and represent the mean±SD. SHP2 protein levels in regular MOLM-13 cells (WT), MOLM-13-Cas9-mCherry cells (Cas9), and MOLM-13-Cas9-mCherry cells with SHP2 KO (SHP2 KO) were evaluated by immunoblot analysis using SHP2 antibodies.
(§4) Viability of AML, esophageal carcinoma, and TF-1 cells was assessed using the ATP-depletion assay CellTiter-Glo® (Promega). Cells were harvested at 1×10^6/mL to 2×10^6 cells/mL with cell numbers determined by trypan blue using the Countess Cell counter (Thermo Scientific) and resuspended in culture media. […] Luminescence was read on a Tecan Spark® Multimode Microplate Reader and data analyzed using Graph Pad Prism software.

[3] = system: Kasumi-1 acute myeloid leukemia (AML) cells; assay: Cell viability assay (CellTiter-Glo), Kasumi-1; format: cell-based; conditions: Kasumi-1 cells, various concentrations, 3 d
From the text: as §3, §4

SMILES | pIC50 [1] | fold selectivity for SHP2 over STEP [1] [fold] | pIC50 (PTP1B catalytic domain) | fold selectivity for SHP2 over PTP1B (PTP1B catalytic domain) [fold] | effect on cancer cell growth [2] | effect on cancer cell growth [3]
Nc1ccc(NC(=O)c2cc(-c3ccc(/C=C4\Sc5ccccc5C4=O)o3)ccc2O)cc1 [#01, (Z)—N-(4-Aminophenyl)-2-hydroxy-5-(5-((3-oxobenzo[b]thiophen-2(3H)-ylidene)methyl)furan-2-yl)benzamide] | 4.36 | 200 | 5.17 | 31 | dose-dependently inhibited cancer cell growth | dose-dependently inhibited cancer cell growth
O=C(Nc1ccccc1)c1cc(-c2ccc(/C=C3\Sc4ccccc4C3=O)o2)ccc1O [#02, (Z)-2-hydroxy-5-(5-((3-oxobenzo[b]thiophen-2(3H)-ylidene)methyl)furan-2-yl)-N-phenylbenzamide] | 4.28 | 73 | 5.03 | 13 | dose-dependently inhibited cancer cell growth | dose-dependently inhibited cancer cell growth
N#Cc1cc(-c2ccc(/C=C3\Sc4ccccc4C3=O)o2)ccc1O [#05, (Z)-2-Hydroxy-5-(5-((3-oxobenzo[b]thiophen-2(3H)-ylidene)methyl)furan-2-yl)benzonitrile] | < 4.00 |  | 5.13 | 5 | dose-dependently inhibited cancer cell growth | dose-dependently inhibited cancer cell growth
